Tests used:
NaPPO1 = target: T1, NaPPO1 (Nicotiana attenuata, UniProt A0A1J6JLI9); experiment: In vitro enzyme assay, substrate specificity of NaPPO1; format: biochemical; conditions: incubated with NaPPO1 and (Z)-3-hexenal
T1 sequence (A0A1J6JLI9 1-596): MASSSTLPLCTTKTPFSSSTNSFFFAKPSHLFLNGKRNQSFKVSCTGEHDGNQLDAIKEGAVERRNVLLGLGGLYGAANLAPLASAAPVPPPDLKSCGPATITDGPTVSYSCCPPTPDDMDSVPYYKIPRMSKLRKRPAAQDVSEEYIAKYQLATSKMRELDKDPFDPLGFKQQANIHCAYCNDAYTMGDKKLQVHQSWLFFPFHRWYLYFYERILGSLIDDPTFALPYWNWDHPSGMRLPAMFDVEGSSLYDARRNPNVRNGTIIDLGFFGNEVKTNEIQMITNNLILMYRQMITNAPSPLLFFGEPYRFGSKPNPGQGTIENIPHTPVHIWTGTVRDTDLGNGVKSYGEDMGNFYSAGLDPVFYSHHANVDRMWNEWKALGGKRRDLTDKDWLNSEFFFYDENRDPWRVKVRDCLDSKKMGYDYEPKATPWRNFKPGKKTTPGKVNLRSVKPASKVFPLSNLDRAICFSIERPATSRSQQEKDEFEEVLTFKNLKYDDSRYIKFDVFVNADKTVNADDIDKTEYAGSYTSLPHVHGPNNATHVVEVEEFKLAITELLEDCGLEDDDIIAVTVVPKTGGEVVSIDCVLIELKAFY
Description: (§1) Extracted ion chromatograms (EIC) for doubly charged CP dimer (m/z 250.13) and m/z 347.19 in E. coli expressing NaPPO1 and NaPPO2 with CP and Z3H or (E)-2-hexenal. Compounds 1, 2, 3, 4 denote isomers of CP dimer; compounds 5, 6 denote isomers of m/z 347.19.
(§2) FIG. 53 Substrate specificity of NaPPO1 and NaPPO2 enzymes. Overlay of total ion chromatograms (TIC) of enzyme assays for authentic chlorogenic acid (CGA std), N-coumaroylputrescine (CoP std), (Z)-3-hexenal or (E)-2-hexenal with purified NaPPO1/NaPPO2 from E. coli. Compounds 1 and 2 denote CGA and CoP; 3 and 4 denote contamination peaks from (Z)-3-hexenal and CoP standards, respectively.
(§3) To test this hypothesis, purified NaPPO1, NaPPO2 and NaBBL2 proteins with N-terminal hexahistidine tags after expression in Escherichia coli were isolated (FIGS. 44-45). Incubation of either NaPPO1 or NaPPO2 (NaPPO1/2) with CP and (Z)-3-hexenal yielded a m/z 347.19 peak with identical MS/MS spectrum and retention time as the m/z 347.19 induced in N. attenuata leaves (FIG. 46). Additionally, by-products of doubly charged CP dimers at m/z 250.13 ([M+2H]2+, C26H36N4O62+) which are not detected in oral secretion-induced leaves of N. attenuata WT (Data 2) were also produced in vitro (FIG. 16 and FIG. 47). These doubly charged CP dimers were only produced when the quantities of the (Z)-3-hexenal substrate were lower than those of the CP substrate in vitro. […]
(§4) In vitro assays of NaPPO1, NaPPO2, and NaBBL2: NaPPO1, NaPPO2, and NaBBL2 enzyme activity assays were performed by incubating 100 μg of the purified recombinant protein in 84 mM acetate buffer (pH 4.8) containing 20 mM (E)-N-caffeoylputrescine (BOC Sciences, catalogue #: B0005-053482) and 1 M cis-3-hexenal (Sigma, catalogue #: W256102-SAMPLE-K) or trans-2-hexenal (Sigma, catalogue #: W256005-1KG-K). During incubation of the enzyme reactions at 8° C., 1 μL of the reactions buffer was directly injected and analyzed by LC-MS every h to detect products. […]

NaPPO2 = NaPPO2 (Nicotiana attenuata, UniProt A0A1J6IKE9); experiment: In vitro enzyme assay, substrate specificity of NaPPO2; format: biochemical; conditions: incubated with NaPPO2 and (Z)-3-hexenal
Chain of NaPPO2 (A0A1J6IKE9 entry or part of it): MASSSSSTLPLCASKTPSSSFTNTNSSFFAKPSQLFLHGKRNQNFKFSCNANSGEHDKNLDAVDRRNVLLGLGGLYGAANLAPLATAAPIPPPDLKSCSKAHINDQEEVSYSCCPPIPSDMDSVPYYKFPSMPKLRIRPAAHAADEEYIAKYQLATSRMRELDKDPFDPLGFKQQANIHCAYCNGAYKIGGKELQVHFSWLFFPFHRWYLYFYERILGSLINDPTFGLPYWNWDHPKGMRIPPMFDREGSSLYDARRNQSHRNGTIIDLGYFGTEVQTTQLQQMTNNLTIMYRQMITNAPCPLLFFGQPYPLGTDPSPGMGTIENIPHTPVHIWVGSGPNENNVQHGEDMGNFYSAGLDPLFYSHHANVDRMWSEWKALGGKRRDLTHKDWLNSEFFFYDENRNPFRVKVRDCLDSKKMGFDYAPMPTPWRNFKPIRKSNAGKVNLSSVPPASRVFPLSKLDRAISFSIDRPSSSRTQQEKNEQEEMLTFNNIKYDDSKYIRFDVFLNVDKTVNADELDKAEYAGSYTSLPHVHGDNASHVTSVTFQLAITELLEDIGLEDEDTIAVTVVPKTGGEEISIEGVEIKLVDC
Description: as §1, §2, §3, §4

## N-coumaroylputrescine [CoP]
NaPPO1
  acceptance as substrate (new products): not accepted as substrates
NaPPO2
  acceptance as substrate (new products): not accepted as substrates

— patent publication US20250051266A1, “Novel GLV-Phenolamide: Biosynthesis and Function in Protecting Plants from Herbivore Attack” (Max-Planck-Gesellschaft zur Förderung der Wissenschaften …, priority 2021, published 2025)
